Measured values: publication PMC5583658, “6,7-dimethoxy-1,2,3,4-tetrahydro-isoquinoline-3-carboxylic acid attenuates heptatocellular carcinoma in rats with NMR-based metabolic perturbations” (Future Science OA, 2017)

Tests used:
[1] = Determination of M1 in rat plasma by HPLC (pharmacokinetics); assay type: in vivo, albino Wistar rats
Description: In a separate experiment, M1 was administered orally at 50 mg/kg bodyweight to albino Wistar rats (n = 3) and blood was collected from retro orbital plexus at 0.083, 0.25, 0.5, 1, 2, 4, 8, 12, 16, 24 and 36 h. After collection, blood was centrifuged at 10,000 rpm for 10 min, serum was separated and kept at -20°C for further HPLC determination.
A 1 mg/ml stock solution of M1 was prepared in methanol. 2, 5, 10, 25, 50, 100, 200, 250 and 500 ng/ml working solutions were prepared from the stock solution in methanol. A 100 μl of blank plasma and 100 μl working solutions were taken in separate tubes and vortexed for 30 min. After that, the tubes were centrifuged at 13,000 rpm for 5 min and supernatant was taken into another tube and dried at 40°C overnight. Later, the tubes were reconstituted with 50 μl of methanol, vortexed for 10 min and 20 μl was injected for HPLC analysis. The final concentration of working solutions were 1, 2.5, 5, 12.5, 25, 50, 100, 125 and 250 ng/ml, respectively. Quality control (QC) samples were also prepared at concentrations of 3.0, 25.0 and 200.0 ng/ml, representing low, medium and high QC samples (LQC, MQC and HQC), respectively. Triplicate calibrants and QC samples were prepared at each concentration.
For test samples, 100 μl of test plasma and 100 μl methanol were taken in a test tube and vortexed for 30 min. The other procedure was similar to previously described method.
For the determination of M1 in plasma samples, chromatographic separations were performed in a Waters 2489 HPLC (MA, USA) equipped with Spherowsorb C18, 5μ, 4.6 × 250 mm column. The flow rate was at 1.0 ml/min and the mobile phases consisted of solvent A (formic acid containing water, pH 3.4) and solvent B (methanol). The elution condition was methanol:formic acid (70:30) and the total run time was 8 min. The HPLC was run through Empower software version 2 and absorbance was measured at 230 nm wave length. The detector used for estimation was Waters 2489 UV-Vis detector. The final data was calculated using Winnonlin version 1.5.3 software.

[2] = system: albino Wistar rats; test: Acute oral toxicity study (OECD Guidelines 423); assay type: in vivo; conditions: for Bilirubin / Bilverdin / CAT / MDA / PC / Reduced GSH / SOD: liver; for Bilirubin / Bilverdin / CAT / MDA / PC / Reduced GSH / SOD / AST / ALT: normal rats, mean±SD, n=6; for AST / ALT: plasma
Description: Acute oral toxicity study of M1 was performed as per revised Organization for Economic Cooperation and Development Guidelines 423. Animal Ethical Committee approved this study (Approval No. SDCOP&VS/AH/CPCSE01/017/R2). M1 was dissolved in 0.25% carboxymethyl cellulose (CMC) and administered orally at the dose of 25, 50, 100, 250 mg/kg body weight to albino Wistar rats for 4 weeks (n = 6) and the animals were observed every day for any toxic manifestations.

[3] = albino Wistar, rat, single oral administration of 50 mg/kg in rats, n = 3, plasma

Question: Which results are given for COc1cc2c(cc1OC)CC(C(=O)O)NC2 (centres unmarked) [M1, 6,7-dimethoxy-1,2,3,4-tetrahydro-isoquinoline-3-carboxylic acid]?
Answer: AUC(0-t) ([1]; albino Wistar, rat, plasma, po, 50 mg/kg, single oral administration of 50 mg/kg in rats, n = 3, plasma, after 36 h): 2070 ng·h/mL; Cmax [1, 3]: 178 ± 3.27 ng/mL; Tmax [1, 3]: 4 h; half-life [1, 3]: 6.05 h; MRT ([1]; albino Wistar, rat, single oral administration of 50 mg/kg in rats, n = 3, plasma, read-out: MRT (mean retention time)): 10.5 h; oral bioavailability (in words) ([1]; oral 50 mg/kg, rats, inferred from Cmax): good oral bioavailability; AUC0-T ([1]; single oral administration of 50 mg/kg in rats, n = 3, plasma, after 36 h, 50 mg/kg): 2056.05 ± 26.22 ng·h/mL; changes in ALT, AST, bilirubin, biliverdin, SOD, CAT, PC, GSH, TBARS as compared with normal control ([2]; M1 dose ranging from 25 to 250 mg/kg orally): no significant changes; Bilirubin ([2]; M1 25 mg/kg orally): 19.24±1.27 ng/µg of protein; Bilverdin ([2]; M1 25 mg/kg orally): 7.15±0.78 ng/µg of protein; CAT ([2]; M1 25 mg/kg orally): 8.22 ± 1.91 nM of H2O2 /min/μg of protein; MDA ([2]; M1 25 mg/kg orally): 9.25 ± 2.87 nM/μg of protein; PC ([2]; M1 25 mg/kg orally): 0.68 ± 0.17 µM/μg of protein; Reduced GSH ([2]; M1 25 mg/kg orally): 4.94 ± 1.17 µM/μg of protein; SOD ([2]; M1 25 mg/kg orally): 14.27 ± 2.88 U/μg of protein; Bilirubin ([2]; M1 50 mg/kg orally): 19.11±3.19 ng/µg of protein; Bilverdin ([2]; M1 50 mg/kg orally): 5.99±1.04 ng/µg of protein; CAT ([2]; M1 50 mg/kg orally): 6.94 ± 2.06 nM of H2O2 /min/μg of protein; MDA ([2]; M1 50 mg/kg orally): 10.11 ± 0.96 nM/μg of protein; PC ([2]; M1 50 mg/kg orally): 0.62 ± 0.05 µM/μg of protein; Reduced GSH ([2]; M1 50 mg/kg orally): 5.42 ± 1.34 µM/μg of protein; SOD ([2]; M1 50 mg/kg orally): 9.78 ± 1.17 U/μg of protein; Bilirubin ([2]; M1 100 mg/kg orally): 18.24±2.55 ng/µg of protein; Bilverdin ([2]; M1 100 mg/kg orally): 7.62±1.45 ng/µg of protein; CAT ([2]; M1 100 mg/kg orally): 8.45 ± 1.59 nM of H2O2 /min/μg of protein; MDA ([2]; M1 100 mg/kg orally): 11.22 ± 1.91 nM/μg of protein; PC ([2]; M1 100 mg/kg orally): 0.49 ± 0.07 µM/μg of protein; Reduced GSH ([2]; M1 100 mg/kg orally): 5.78 ± 1.65 µM/μg of protein; SOD ([2]; M1 100 mg/kg orally): 8.97 ± 1.95 U/μg of protein; Bilirubin ([2]; M1 250 mg/kg orally): 20.13±2.56 ng/µg of protein; Bilverdin ([2]; M1 250 mg/kg orally): 7.91±0.99 ng/µg of protein; CAT ([2]; M1 250 mg/kg orally): 7.38 ± 1.28 nM of H2O2 /min/μg of protein; MDA ([2]; M1 250 mg/kg orally): 12.33 ± 2.17 nM/μg of protein; PC ([2]; M1 250 mg/kg orally): 0.48 ± 0.08 µM/μg of protein; Reduced GSH ([2]; M1 250 mg/kg orally): 6.22 ± 1.07 µM/μg of protein; SOD ([2]; M1 250 mg/kg orally): 9.12 ± 1.65 U/μg of protein; safe dose ([2]; oral, albino Wistar rats, 4 weeks): up to 250 mg/kg body weight; AST ([2]; M1 25 mg/kg orally): 11.33 ± 3.67 U/L; ALT ([2]; M1 50 mg/kg orally): 33.16± 4.22 U/L; AST ([2]; M1 50 mg/kg orally): 11.90 ± 1.69 U/L; ALT ([2]; M1 100 mg/kg orally): 33.24 ± 1.57 U/L; AST ([2]; M1 100 mg/kg orally): 14.33 ± 1.28 U/L; ALT ([2]; M1 250 mg/kg orally): 35.11 ± 2.84 U/L; AST ([2]; M1 250 mg/kg orally): 14.92 ± 3.52 U/L
